This is an account of results in patent US20200299328A1, “POLYPEPTIDE WITH FUNCTION OF INHIBITING ABETA 42 PROTEIN AGGREGATION AND USE THEREOF, AND GENE ENCODING THE POLYPEPTIDE” (SOUTH CHINA UNIVERSITY OF TECHNOLOGY, priority 2018, published 2020).

The assay relates to Aβ42 protein aggregation in HEK-293-Aβ42-mCherry cells. Kind of assay: Activity experiment of inhibiting Aβ42 protein aggregation in vitro (IncuCyte Zoom live cell imaging, tetracycline induction). The conditions noted are these: compared with model group, 72 hours after tetracycline, p<0.01 (FIG. 5). In kind it is cell-based. An excerpt:
In the specific embodiments, in an application process of the polypeptide with the function of inhibiting Aβ42 protein aggregation according to the present invention, a mechanism of inhibiting AD senile plaque by the polypeptide is first researched through a visual in-vitro cell model test. Specifically, an amino acid sequence of a core component of senile plaque—an Aβ42 protein (the 22nd amino acid in a sequence of 42 amino acids—glutamic acid is mutated into glycine) is stably transferred into HEK-293 cells, so that it is stably expressed in the HEK-293 cells to form a cell model of abnormal Aβ protein aggregation, and then tetracycline is added to induce the Aβ protein to form a red fluorescent protein and emit red fluorescent light for positioning and quantifying the expression of the Aβ42 protein; and then, the polypeptide with the function of inhibiting Aβ42 protein aggregation according to the present invention is added, and a HEK293 cell model transfected with an Aβ42-red fluorescent labeling gene is used for evaluation, thus proving that the polypeptide has a remarkable activity of inhibiting Aβ42 protein aggregation. […]

As to Pro-Pro-Lys-Asn-Trp (PPLAT) [PW-5], the “Aβ42 protein aggregation rate” value by setting is: (PW-5 high-dose group 0.5 mM, effect more significant than low-dose group) “significantly reduced”; (PW-5 low-dose group 0.05 mM) “significantly reduced”.
